System: human umbilical vein endothelial cells (HUVEC)
Assay: Tube formation of HUVEC grown with Matrigel
Type: cell-based
Conditions: for Area of the tube: 50 μM compound in DMSO, DMSO control 88; for Area of the tube %: DMSO control = 100; for inhibition at 50 µM: Homo sapiens, HUVEC, read-out: percent inhibition of the tube formation
Description: In order to do the tube formation assay, blood vessel endothelial cells, that Is, human umbilical vein endothellal cells (HUVECs), were isolated. HUVECs were isolated from freshly obtained cords after cesarean section, and they were grown and identified by immunocytochemial staining with anti-Factor Vil antibody. HUVECs grown with Matrigel (BD Bioscience, Bedford, Mass., USA), were treated with 0.4 μg/μl of the above Ginkgo biloba leaf extract (Hwa II Pharmaceutical Co., LTD, Korea) of the EXAMPLE 1, and further incubated at 37° C. for […]. As a control, the procedure was repeated without Ginkgo biloba leaf extract.
The area of the tube was determined by the image analysis program Image-Pro Plus (Media Cybernetics, USA), and as summarized in Table I, tube formation after treatment of Ginkgo biloba leaf extract was inhibited by about 60% as compared with the untreated control.
Representative compounds from Ginkgo biloba, quercetin (Sigma Cat No. Q0125) and kaempferol (Indofine Chemical Cat No. K-102) as flavonoids, amentoflavon (Indofine Chemical Cat No. 021101S) as a biflavonoid and ginkolide A (Sigma Cat No. G4028) as a terpene-lactone, were subjected to the tube formation assay as described in EXAMPLE 1.
Since the above chemicals are not soluble in water, they were dissolved on dimethyl sulfoxide (DMSO), and in order to exclude the effect of solvent for these compounds, HUVECs treated with the same amount of DMSO were used as a control. FIG. 6 is a picture of the 1% DMSO-treated HUVEC control, and FIGS. 7-10 are pictures showing the effect on tube formation of individual compounds (quercetin, kaempferol, amentoflavon, and ginlkolide A, respectively). At 50 μM concentration, the order of inhibitory effect on HUVEC tube formation was quercetin>kaempferol>amentoflavon>ginkgolide A. Ginkgolide A was not effective even at 1 mM concentration.
Therefore, not biflavonoids but flavonoids such as quercetin and kaempferol, are the major component for angiogenesis inhibition in Ginkgo biloba leaf extract.

[1] = 50 μM compound, versus DMSO control

SMILES | Area of the tube | Area of the tube % (50 μM compound) [%] | inhibition at 50 µM [1] [%] | effect on HUVEC tube formation (1 mM concentration) | percent inhibition of the tube formation [1]
O=c1c(O)c(-c2ccc(O)cc2)oc2cc(O)cc(O)c12 [Kaempferol, kaempferol] | 24 | 27 | 73 | – | –
C[C@@H]1C(=O)O[C@H]2C[C@@]34[C@H]5C[C@@H](C(C)(C)C)[C@]36[C@@H](OC(=O)[C@@H]6O)O[C@@]4(C(=O)O5)[C@]21O [Ginkgolide A, ginkolide A] | – | – | – | not effective | –
O=c1c(O)c(-c2ccc(O)c(O)c2)oc2cc(O)cc(O)c12 [Quercetin, quercetin] | 6.6 | 7.5 | 93 | – | –
O=c1cc(-c2ccc(O)c(-c3c(O)cc(O)c4c(=O)cc(-c5ccc(O)cc5)oc34)c2)oc2cc(O)cc(O)c12 [Amentoflavon, amentoflavon] | 48 | 55 | – | – | 45

From patent publication US20040101578A1, “Compositon containg ginkgo biloba that inhibit angiogenesis and matrix metalloprotinase” (priority 2003, published 2004)
